Measurements published in US20230227466A1, “SUBSTITUTED THIENOPYRIMIDINES THAT INTERACT WITH THE RAS SUPERFAMILY FOR THE TREATMENT OF CANCERS, INFLAMMATORY DISEASES, RASOPATHIES, AND FIBROTIC DISEASE” (SHY Therapeutics, LLC, priority 2020, published 2023).
Where two headings read alike, the source gives them in different places.

Tests used:
KRas G12C mutant = target: T1, KRas G12C mutant (Homo sapiens, UniProt P01116, G12C); test: Ras GTP binding domain inhibition assay (labeled-GTP competition, cell-free)
T1 construct: made in house
Description: (§1) This is a competitive binding assay. It involves the immobilization of a protein on solid phase, interaction with a small molecule drug candidate, and then competitive binding with a labeled native GTP or GDP ligand.
(§2) In theory, the assay is suitable for use with any GTP or GDP binding protein.
(§3) The following method was developed as specific assay for the following proteins: KRas wild type, KRas Q61H mutant, KRas G12C mutant, KRas G12D mutant, Rac-1, and Rho-A.
(§4) The small GTPases proteins: KRas wild type. KRas Q61H mutant, KRas G12C mutant, KRas G12D mutants, Rac-1, and Rho-A were expressed as His-tagged proteins. In addition, the Guanosine nucleotide Exchange Factor (GEF) Sos protein (residues 556-1049) was expressed as a His-tagged protein. In cells, the guanine nucleotide exchange factor Sos protein promotes activation of Ras proteins by stimulating an exchange of GDP for GTP. The inclusion of Sos to the Ras GTP binding domain inhibition assay may be considered as an alternative representation of physiological cellular conditions for evaluating the inhibitory activity of some of the tested small molecules.
(§5) For the assay, all purified small GTPases proteins were diluted in Buffer-I or Buffer-II to a final concentration of 10-30 μg/mL. 200 μL of each diluted protein was added to a nickel-coated 96-well plate and incubated overnight at 4° C. Then the protein solution was discarded and 200 μL of Buffer-I or Buffer-II was added to each well in the presence of 1% DMSO. Compounds to be tested were added to the protein-coated wells at final concentration of 20 μM, and incubated for 3 hours at room temperature with and without 10-30 μg/mL of Sos added to the final hour of the incubation. When performing IC50 measurements a serial dilution of all tested concentrations was added. Then Cy3-GTP or Cy5-GTP was added to each well to a final concentration of 100 nM. The labeled GTP was incubated for 45 minutes at room temperature. Following GTP incubation, wells were washed 3× in Buffer-I or Buffer-II and 200 μL of Buffer-I or Buffer-II was added to each well. Following washes, the amount of bound labeled-GTP was measured using a SpectraMax M3 (Molecular Devices).

KRas G12D mutant = target: T2, KRas G12D mutant (Homo sapiens, UniProt P01116, G12D); test: as above
T2 construct: made in house
Description: as §1, §2, §3, §4, §5

KRas Q61H mutant = target: T3, KRas Q61H mutant (Homo sapiens, UniProt P01116, Q61H); test: as above
T3 construct: made in house
Description: as §1, §2, §3, §4, §5

[1] = system: Akt phosphorylation in Panc-1 cells; test: Western AKT cell-based phosphorylation assay; set-up: species or system human; details: at 10 μM, values in brackets < > are activation %, not inhibition
Description: Human Tumor-Derived Pancreatic Cancer Cell Line Panc-1 was Purchased from
American Type Culture Collection and grown in complete DMEM-High Glucose supplemented with penicillin (100 U/mL), streptomycin (100 μg/mL), and 10% heat-inactivated FBS at 37° C. in a humidified incubator with 5% CO2.
Method: Cells were plated at 350000 cells/well density in a 12-well plate, allowed 3 hours to adhere to the plate, then starved in the appropriate medium in the presence of 0.5% FBS overnight. The small molecules to be tested were added to the cells in the final concentration of 10 μM in the presence of 0.3% DMSO for 6 hours incubation at 37° C. Next, cells were stimulated with 1.5 ng/ml EGF for 15 minutes then cells were lysed with lysis buffer containing 1% Triton X-100, EDTA, and Halt™ Protease & Phosphatase Inhibitor Cocktail (Thermo Scientific). Protein concentration was assessed by BCA protein assay (Thermo Scientific). Phosphorylation level of Akt was determined by western blot.
Western blot protocol: Equal amounts of protein (15-50 μg) were separated by SDS-PAGE and transferred to nitrocellulose membranes (Invitrogen by Thermo Fisher Scientific). The membrane was stained with Ponceau S Stain (Boston BioProducts) to verify uniform protein loading. Membranes were blocked with 10% milk and phosphorylation levels of Akt were assessed by incubating overnight at 4° C. with anti-phospho-Akt (Ser473) antibody (Cell Signaling) followed by HRP-conjugated secondary antibody (Jackson Immunoresearch, West Grove, Pa.). Bands were incubated in Amersham ECL Prime Western Blotting Detection Reagent (GE Healthcare) and visualized using the ChemiDoc MP imaging system (Bio-Rad).

[2] = with SOS, read-out: KRas G12C mutant + SOS: % inh.
[3] = without SOS, read-out: KRas G12C mutant: % inh.
[4] = with SOS, read-out: KRas G12D mutant + SOS: % inh.
[5] = without SOS, read-out: KRas G12D mutant: % inh.
[6] = with SOS, read-out: KRas Q61H mutant + SOS: % inh.
[7] = without SOS, read-out: KRas Q61H mutant: % inh.

Compound	inhibition at 20 µM (KRas G12C mutant; [2]) [%]	inhibition at 20 µM (KRas G12C mutant; [3]) [%]	inhibition at 20 µM (KRas G12D mutant; [4]) [%]	inhibition at 20 µM (KRas G12D mutant; [5]) [%]	inhibition at 20 µM (KRas Q61H mutant; [6]) [%]	inhibition at 20 µM (KRas Q61H mutant; [7]) [%]	IC50 (KRas Q61H mutant; with SOS) [nM]	% inh of AKT phosphorylation in PANC-1 [1]
COC[C@@H]1CC[C@@H]1CNc1nc(-c2nccn2C)nc2sc(-c3ccn(C(C)C)n3)c(C)c12 (racemic) [Compound 63, rac-6-(1-Isopropyl-1H-pyrazol-3-y)-N-(((1S,2R)-2-(methoxymethyl)cyclobutyl)methyl)-5-methyl-2-(1-methyl-1H-imidazol-2-yl)thieno[2,3-d]pyrimidin-4-amine]	26 to 50	26 to 50	51 to 75	51 to 75	26 to 50	51 to 75		C (51-75% inhibition)
COCCNc1nc(-c2nccn2C)nc2sc(-c3ccn(C(C)C)n3)c(C)c12 [Compound 35, 6-(1-Isopropyl-1H-pyrazol-3-yl)-N-(2-methoxyethyl)-5-methyl-2-(1-methyl-1H-imidazol-2-yl)thieno[2,3-d]pyrimidin-4-amine]	76 to 100	76 to 100	76 to 100	76 to 100	76 to 100	76 to 100		0 (0% inhibition)
CO[C@H]1C[C@H](Nc2nc(-c3nccn3C)nc3sc(-c4ccn(C(C)C)n4)c(C)c23)C[C@H]1OC [Compound 43, N-((1s,3R,4S)-3,4-Dimethoxycyclopentyl)-6-(1-isopropyl-1H-pyrazol-3-yl)-5-methyl-2-(1-methyl-1H-imidazol-2-yl)thieno[2,3-d]pyrimidin-4-amine]	76 to 100	1 to 25	76 to 100	76 to 100	76 to 100	1 to 25		<D>
CO[C@H]1CC[C@@H](Nc2nc(C(=O)N3CCCC3)nc3sccc23)C1 (racemic) [Compound 25, Rac-(4-(((1R,3S)-3-Methoxycyclopentyl)amino)thieno[2,3-d]pyrimidin-2-yl)(pyrrolidin-1-yl)methanone]	0	0	0	0	0	0		0 (0% inhibition)
CO[C@H]1CC[C@H](Nc2nc(-c3nccn3C)nc3sc(-c4ccn(C(C)C)n4)c(C)c23)CC1 [Compound 54]	76 to 100	76 to 100	76 to 100	51 to 75	76 to 100	51 to 75		<A>

More lines, main results first:

inhibition at 20 µM (KRas G12C mutant; [2]) [%]	inhibition at 20 µM (KRas G12C mutant; [3]) [%]	inhibition at 20 µM (KRas G12D mutant; [4]) [%]	inhibition at 20 µM (KRas G12D mutant; [5]) [%]	inhibition at 20 µM (KRas Q61H mutant; [6]) [%]	inhibition at 20 µM (KRas Q61H mutant; [7]) [%]	IC50 (KRas Q61H mutant; with SOS) [nM]	Compound	% inh of AKT phosphorylation in PANC-1 [1]
51 to 75	51 to 75	51 to 75	51 to 75	51 to 75	51 to 75		COCCCn1ccnc1-c1nc(O)c2scc(-c3ccccn3)c2n1 [Compound 79, 2-(1-(3-Methoxypropyl)-1H-imidazol-2-yl)-7-(pyridin-2-yl)thieno[3,2-d]pyrimidin-4-ol]	<B>
76 to 100	51 to 75	51 to 75	51 to 75	76 to 100	51 to 75	1000 to 4990	CO[C@@H]1CC[C@H](Nc2nc(-c3nccn3C)nc3sc(-c4ccn(C(C)C)n4)c(-c4ccccc4)c23)C1 [Example 4, 6-(1-isopropyl-1H-pyrazol-3-yl)-N-((1S,3R)-3-methoxycyclopentyl)-2-(1-methyl-1H-imidazol-2-yl)-5-phenylthieno[2,3-d]pyrimidin-4-amine]	D (76-100% inhibition)
51 to 75	51 to 75	76 to 100	76 to 100	51 to 75	76 to 100		CCOCCn1ccnc1-c1nc(O)c2scc(-c3ccccn3)c2n1 [Compound 80, 2-(1-(2-Ethoxyethyl)-1H-imidazol-2-yl)-7-(pyridin-2-yl)thieno[3,2-d]pyrimidin-4-ol]	<D>
